Patent US10682372B2, “Intracellular ATP enhancer” (StaGen Co., Ltd., priority 2015, dated 2020)

Legend:
[1] = high-dose administration; cited from earlier work
[2] = system: model mouse of amyotrophic lateral sclerosis; conditions: model mouse of ALS; cited from earlier work
[3] = Clinical test Phase II: urinary purine concentration; type: in vivo, Human
[4] = First administration test: serum uric acid value (uricase-peroxidase method); type: in vivo, Human
Experimental: For a clinical chemistry automatic analyzer, a dry clinical chemistry analysis measuring unit manufactured by ARKRAY, Inc. was used, and the serum uric acid value was measured by using the uricase-peroxidase method. A first clinical test was conducted by first administering febuxostat at 40 mg/day (single administration of febuxostat), after a while, additionally administering inosine (combined administration of febuxostat and inosine), and gradually increasing the dosage of inosine from 0.5 to 3 g/day. Meanwhile, blood was collected at the timing shown on the horizontal axis of FIG. 2 to measure the serum uric acid value.

[5] = Clinical test Phase II: urinary uric acid concentration/creatinine concentration; type: in vivo, Human; conditions: Week 0 to Week 2
Experimental: Since the urinary uric acid concentration varies with urine volume, a urinary uric acid amount was evaluated by using a urinary uric acid/creatinine value acquired by dividing by urinary creatinine concentration. The measurement method of the uric acid value was the same as Test Example 1.
(§1) The following administration test was conducted for 16 Japanese healthy adult males, one subject in Phase I and 15 subjects which divided into Groups of A to E for each groups 3 subjects in phase II.
(§2) After the end of Phase I, administration was performed to three subjects of each of the groups as follows:
(§3) Group A: febuxostat 20 mg twice a day for 14 days;
(§4) Group B: inosine 500 mg twice a day for 14 days;
(§5) Group C: febuxostat 20 mg+inosine 500 mg twice a day for 14 days;
(§6) Group D: febuxostat 20 mg+inosine 1000 mg twice a day for 14 days; and
(§7) Group E: febuxostat 30 mg twice a day for 14 days.

[6] = Clinical test Phase II: serum uric acid value; type: in vivo, Human
Experimental: as §1, §2, §3, §4, §5, §6, §7

[7] = Clinical test Phase II: blood purine concentration; type: in vivo, Human; conditions: for ATP concentration in blood, change: Week 0 to Week 2; for inosine concentration in blood, change: any groups (Groups A to E)
Experimental: Various purines in peripheral blood were measured according to Reference (1). Briefly, peripheral blood was collected with EDTA, mixed with 500 μL+500 μL ice cold 8% PCA, immediately vortexed for five seconds, and centrifuged at 12,000×g for 10 minutes at 4° C., and the supernatant was stored at −80° C. The sample was dissolve in a gathered state, and 40 μL of 2M K2CO3 in 6 M KOH was added to 650 μL of the solution to precipitate PCA and neutralize the solution at the same time. After this solution was centrifuged at 12,000×g for 10 minutes at 4° C., 160 μL of a mobile phase was added to 40 μL of supernatant and apply to HPLC. The conditions of HPLC were also set according to Reference (1) below. The amounts of purines are expressed in molar quantity contained in 1 L of whole blood.
as §1, §2, §3, §4, §5, §6, §7

[8] = Second administration test: serum uric acid value, single and combined administration; type: in vivo, Human
Experimental: (1) The subject of administration was the same as Test Example 1.
After a sufficient period had elapsed from completion of Test Example 1, febuxostat was administered again at 40 mg/day to the patient, and the serum uric acid value was measured three days later. Subsequently, febuxostat was discontinued and, after a while, administration of 2 g/day of inosine was started (administered at 1 g each after breakfast and dinner) and was followed by combined use of 2 g/day of inosine and 40 mg of febuxostat (administered at 20 mg each after breakfast and dinner). The serum uric acid value was measured at time points shown on the horizontal axis of FIG. 4.

[9] = in vivo; cited from earlier work
[10] = in vivo; cited from earlier work; remark: listed apart in the source
[11] = system: erythrocytes; conditions: erythrocytes kept at low temperature for 20 to 30 days, one hour after addition of inosine; cited from earlier work
[12] = Week 0 to Week 2, single administration of febuxostat
[13] = Group A febuxostat 40 mg/day alone
[14] = febuxostat 60 mg/day single administration
[15] = Week 0 to Week 2, single administration of inosine

Compound: Oc1ncnc2[nH]ncc12 [allopurinol]
- symptoms of chronic stable angina [1]: suppressed
- disease progression of amyotrophic lateral sclerosis [2]: did not inhibit the disease progression

Compound: Cc1nc(-c2ccc(OCC(C)C)c(C#N)c2)sc1C(=O)O [febuxostat]
- maximum concentration of urinary X ([3]; Group A: febuxostat 20 mg twice a day): 556.0 µM
- maximum concentration of urinary X ([3]; Group E: febuxostat 30 mg twice a day): 867.7 µM
- urinary Hx, change [3, 12]: moderate rise
- urinary X concentration, change [3, 12]: significantly increased
- serum uric acid value ([4]; febuxostat 40 mg/day single administration, 2014.07.12, 8.4 mg/dL before (2014.07.05)): 4.7 mg/dL
- serum uric acid value ([4]; febuxostat 40 mg/day, 0 g inosine, 2014.08.23): 4.9 mg/dL
- reduction of serum uric acid value ([4]; febuxostat 40 mg/day, previous (first) test): 3.7 mg/dL
- urinary uric acid/creatinine, change ([5]; febuxostat alone (Groups A and E)): reduced
- reduction of serum uric acid value ([6]; Group A: febuxostat 20 mg twice a day for 14 days): 2.53 mg/dL
- reduction of serum uric acid value ([6]; Group E: febuxostat 30 mg twice a day for 14 days): 3.93 mg/dL
- serum uric acid value, lowest observed ([6]; Group E: febuxostat 60 mg/day): less than 2 mg/dL
- serum uric acid value, lower limit observed ([6]; any of the administration examples of 40 mg/day of febuxostat): ≥ 2 mg/dL
- disease progression of amyotrophic lateral sclerosis [2]: inhibits disease progression
- Hx (hypoxanthine) concentration in blood, change [7, 13]: unchanged
- X (xanthine) concentration in blood, change [7, 13]: significantly increased
- ATP concentration in blood, change ([7]; Group A febuxostat 40 mg/day): not changed
- ATP concentration in blood, change ([7]; Group E febuxostat 60 mg/day): No certain tendency was observed
- inosine concentration in blood, change [7]: no rise
- Hx (hypoxanthine) concentration in blood, change [7, 14]: slight rise
- X (xanthine) concentration in blood, change [7, 14]: rise
- suppression by febuxostat of the serum uric acid increasing action of inosine ([8]; febuxostat 40 mg/day, remaining share of the increase): 22.4%
- reduction of serum uric acid value ([8]; three days from febuxostat 40 mg/day): 3.4 mg/dL
- serum uric acid value ([8]; three days from febuxostat 40 mg/day (20150515), 8.2 mg/dL before (20150501)): 4.8 mg/dL

Compound: OC[C@H]1O[C@@H](n2cnc3c(O)ncnc32)[C@H](O)[C@@H]1O [inosine]
- symptoms of Parkinson's disease [9]: alleviates symptoms
- maximum concentration of urinary X ([3]; Group B: inosine 500 mg twice a day): 61.9 µM
- urinary Hx, change [3, 15]: no rise
- urinary X, change [3, 15]: no rise
- urinary uric acid/creatinine, change ([5]; Group B inosine alone): significantly increased
- serum uric acid value, highest observed ([6]; Group B: inosine 500 mg twice a day for 14 days): up to 8.1 mg/dL
- rise of serum uric acid value on average ([6]; Group B: inosine 1 g per day, without febuxostat): 2.57 mg/dL
- Hx (hypoxanthine) concentration in blood, change ([7]; Group B inosine 1 g/day alone): neither Hx nor X changed
- X (xanthine) concentration in blood, change ([7]; Group B inosine 1 g/day alone): neither Hx nor X changed
- ATP concentration in blood, change ([7]; Group B inosine 1 g/day): not changed
- inosine concentration in blood, change [7]: no rise
- serum uric acid value ([8]; inosine 2 g/day (1 g after breakfast and dinner), six days later, 8.3 mg/dL before): 13.4 mg/dL
- rise of serum uric acid value ([8]; inosine 2 g/day alone): 5.1 mg/dL
- rise of serum uric acid value per 1 g/day administration of inosine ([8]; inosine alone): 2.55 mg/dL
- symptoms of multiple sclerosis [10]: alleviates symptoms
- ATP in erythrocytes [11]: ATP increased
